In publication PMC9740939, “A Network-Pharmacology-Combined Integrated Pharmacokinetic Strategy to Investigate the Mechanism of Potential Liver Injury due to Polygonum multiflorum” (Molecules, 2022):
Where two headings read alike, the source gives them in different places.

Tests used:
[1] = Stability of analytes in rat plasma (QC samples, storage and freeze–thaw); assay type: in vitro ADME; settings: for Stability in rat plasma (in words): 4 °C for 48 h, −80 °C for 10 days, three freeze–thaw cycles; for Stability Re (%), 4 °C, 48 h / Stability Re (%), −80 °C, 10 Days / Stability Re (%), Three Freeze–Thaw Cycles: rat plasma, n = 6; for Stability Re (%), Three Freeze–Thaw Cycles: −80 °C to 25 °C
Experimental: Samples for bioanalytical method validation were prepared by spiking 100 μL of blank rat plasma and 100 μL of IS solution in bulk with different standard solutions to obtain appropriate concentrations for serial standard working solutions with the matrix and QC samples (TSG, PG, AE, and EM: 0.50 ng/mL (lower limit of quantitation, LLOQ), 10.0 ng/mL (low quality control, LQC), 200 ng/mL (medium quality control, MQC), and 640 ng/mL (high quality control, HQC); EG: 0.125 ng/mL (LLOQ), 2.50 ng/mL (LQC), 50.0 ng/mL (MQC), and 160 ng/mL (HQC)). All the stock solutions, working solutions, and samples were stored at −80 °C pending use.
Stability experiments were performed to evaluate the stability of the analytes in rat plasma at the LQC, MQC, and HQC under different time and temperature conditions. These included short-term stability (4 °C for 48 h), long-term stability (−80 °C for 10 days), and stability over three freeze–thaw cycles (−80 °C to 25 °C) by analyzing QC samples.

[2] = Pharmacokinetic study in rats after oral administration of PM extract (HPLC-QQQ-MS of plasma); assay type: in vivo, Sprague–Dawley (SD) rats; settings: oral PM 18 g/kg; for half-life: n = 6, read-out: T1/2z (converted); for MRT last: read-out: MRT0–t; for MRT inf: read-out: MRT0–∞; for Vd/F: read-out: Vz/F
Experimental: Adult male Sprague–Dawley (SD) rats weighing between 180 g and 220 g were purchased from Beijing Vital River Laboratory Animal Technology Co., Ltd. (Beijing, China). The rats were kept in an animal center with air-conditioning and with a natural light–dark cycle (22 ± 1 °C and 40–50% humidity) with ad libitum access to standard food and water for a week before the experiment. All the animal procedures were in accordance with the Regulations of Experimental Animal Administration issued by the State Committee of Science and Technology of the People’s Republic of China. All the SD rats were fasted for 12 h prior to the experiment but with free access to water.
The assay was performed with an Agilent 1260 high-performance liquid chromatography system combined with Agilent 6470 QQQ MS (Agilent Technologies, CA, USA). Applied Masshunter Qualitative Analysis software (version B.07.00) and Quantitative Analysis software (version 07.00) were used for data acquisition and quantification. Analytes separation was achieved on a reversed-phase C18 column (Agilent Poroshell 120 EC-C18, 3.0 × 50 mm, 2.7 μm), which was protected by a guard column (Agilent EC-C18 3.0 × 5.0 mm, 2.7 μm). A gradient elution program composed of water (A) and acetonitrile (B) with gradient elution was used as follows: 0–1 min, 5% B; 1–3 min, 5–45% B; 3–7 min, 45–60% B; and 7–9 min, 60–95% B. The oven temperature was maintained at 40 °C. The flow rate was set at 0.6 mL/min (with a split ratio of 1:1.8), and the injection volume was 4 μL.
Agilent QQQ MS equipped with an electrospray ionization (ESI) source was used for mass spectrometric detection. MRM mode (negative) was used for performing the quantification of TSG, EG, PG, AE, and EM. The other MS conditions were set as follows: gas temperature, 300 °C, gas flow, 8 L/min; nebulizer, 55 psi; and sheath gas flow, 11 L/min.
A simple pretreatment method for protein precipitation was carried out to clean up the plasma samples prior to LC-MS/MS analysis. The plasma sample was thawed to room temperature. An aliquot of pre-cooled 800 μL of acetonitrile and 100 μL of IS solution (100 ng/mL) was added to a 300 μL plasma sample in a centrifuge tube. The tubes were vortexed for 10 min and spun in a centrifuge at 12,000 rpm for 15 min at 4 °C. The supernatant was transferred into a separate tube and dried using a vacuum concentrator, and the samples were re-dissolved with 100 μL of pure methanol. Next, the tube was vortexed for 10 min and spun in a centrifuge at 12,000 rpm for 15 min at 4 °C again. The supernatant was then injected into the HPLC-QQQ-MS instrument for analysis.
(§1) Blood samples were collected from the fundus into heparinized 1.5 mL polythene tubes at 5, 15, and 30 min and 1, 2, 4, 8, 12, and 24 h after oral administration of PM (18 g/kg). The blood samples were immediately centrifuged at 3500 rpm for 10 min to obtain plasma. Next, the plasma obtained was prepared for HPLC-QQQ-MS analysis, as described before. The TSG, EG, PG, AE, and EM concentrations in plasma versus time data for each rat were analyzed using Drug and Statistics Software (DAS version 3.2.8, Beijing University of Traditional Chinese Medicine, Beijing, China).

[3] = Integrated pharmacokinetics by AUC-based weighting approach; assay type: in vivo, Sprague–Dawley (SD) rats; settings: Wj = AUCj0–∞ / sum of AUC0–∞; rats, oral PM 18 g/kg
Experimental: as §1
As mentioned before, the concentration–time curve (AUC0–∞) of each constituent was obtained using DAS, and then the integrated concentration was obtain using the following equations [46]: The weighting coefficient for each component was calculated using Equations (1) and (2). The integrated concentrations were then calculated by Equation (3). (1) Wj=AUCj0−∞/∑13AUC0−∞ (2) ∑13AUC0−∞=AUC0−∞1+AUC0−∞2+AUC0−∞3 (3) cT=W1×c1+W2×c2+W3×c3 where ω represents the weighting coefficient, “j” represents the three constituents studied, C1–C3 represent the plasma concentration of the three index components studied, and CT represents the integrated plasma concentration.

[4] = HQC: spiked 640 ng/mL (EG 160 ng/mL)
[5] = LQC: spiked 10.0 ng/mL (EG 2.50 ng/mL)
[6] = MQC: spiked 200 ng/mL (EG 50.0 ng/mL)
[7] = male, Sprague-Dawley, rat, plasma, po, 18 g/kg
[8] = male, Sprague-Dawley, rat plasma, n = 6
[9] = male, Sprague-Dawley, rat plasma, n = 6, read-out: Tmax
[10] = male, Sprague-Dawley, rat, plasma, po, 18 g/kg, n = 6

Compound: COc1cc(O)c2c(c1)C(=O)c1cc(C)cc(OC3OC(CO)C(O)C(O)C3O)c1C2=O [PG, physcion-8-O-β-D-glucoside]
- Stability in rat plasma (in words) [1]: stable
- Stability Re (%), 4 °C, 48 h [1, 4]: 92.41%
- Stability Re (%), −80 °C, 10 Days [1, 4]: 96.88%
- Stability Re (%), Three Freeze–Thaw Cycles [1, 4]: 98.03%
- Stability Re (%), 4 °C, 48 h [1, 5]: 98.55%
- Stability Re (%), −80 °C, 10 Days [1, 5]: 90.14%
- Stability Re (%), Three Freeze–Thaw Cycles [1, 5]: 88.21%
- Stability Re (%), 4 °C, 48 h [1, 6]: 90.36%
- Stability Re (%), −80 °C, 10 Days [1, 6]: 94.69%
- Stability Re (%), Three Freeze–Thaw Cycles [1, 6]: 94.08%
- half-life [2, 7]: 12.3 ± 10.1 h
- AUC(0-inf) [2, 8]: 205 ± 95.6 ng·h/mL
- AUC(0-t) [2, 8]: 146 ± 19.4 ng·h/mL
- Cmax [2, 8]: 20 ± 2.69 ng/mL
- MRT last [2, 8]: 8.41 ± 1.01 h
- MRT inf [2, 8]: 17.6 ± 13.9 h
- Tmax [2, 9]: 0.25 h
- Vd/F [2, 8]: 242 ± 71.8 L/kg
- CLz/F ([2]; rat plasma, n = 6): 290 ± 103 mL/min/kg
- T1/2z ([2]; rat plasma, n = 6): 12.3 ± 10.1 h

Compound: O=C1c2cccc(O)c2C(=O)c2c(O)cc(CO)cc21 [AE, aloe-emodin]
- Stability in rat plasma (in words) [1]: stable
- Stability Re (%), 4 °C, 48 h [1, 4]: 90.21%
- Stability Re (%), −80 °C, 10 Days [1, 4]: 100.1%
- Stability Re (%), Three Freeze–Thaw Cycles [1, 4]: 96.94%
- Stability Re (%), 4 °C, 48 h [1, 5]: 94.77%
- Stability Re (%), −80 °C, 10 Days [1, 5]: 90.27%
- Stability Re (%), Three Freeze–Thaw Cycles [1, 5]: 90.50%
- Stability Re (%), 4 °C, 48 h [1, 6]: 97.05%
- Stability Re (%), −80 °C, 10 Days [1, 6]: 89.62%
- Stability Re (%), Three Freeze–Thaw Cycles [1, 6]: 91.44%
- AUC(0-inf) [2, 10]: 70.3 ± 13.8 ng·h/mL
- half-life [2, 7]: 6.42 ± 2.17 h
- AUC(0-t) [2, 8]: 64.5 ± 9.4 ng·h/mL
- Cmax [2, 8]: 17.9 ± 2.94 ng/mL
- MRT last [2, 8]: 6.5 ± 1.42 h
- MRT inf [2, 8]: 8.57 ± 3.02 h
- Vd/F [2, 8]: 407 ± 113 L/kg
- CLz/F ([2]; rat plasma, n = 6): 756 ± 131 mL/min/kg
- Tmax ([2]; rat plasma, n = 6): 0.25 ± 0.00 h
- Weighting coefficient (AUC0–∞ share) [3]: 2.799%

Compound: Cc1cc(O)c2c(c1)C(=O)c1cc(O)cc(O)c1C2=O [EM, emodin]
- Stability in rat plasma (in words) [1]: stable
- Stability Re (%), 4 °C, 48 h [1, 4]: 85.19%
- Stability Re (%), −80 °C, 10 Days [1, 4]: 111.7%
- Stability Re (%), Three Freeze–Thaw Cycles [1, 4]: 99.10%
- Stability Re (%), 4 °C, 48 h [1, 5]: 86.36%
- Stability Re (%), −80 °C, 10 Days [1, 5]: 97.48%
- Stability Re (%), Three Freeze–Thaw Cycles [1, 5]: 96.37%
- Stability Re (%), 4 °C, 48 h [1, 6]: 92.05%
- Stability Re (%), −80 °C, 10 Days [1, 6]: 99.40%
- Stability Re (%), Three Freeze–Thaw Cycles [1, 6]: 98.71%
- AUC(0-inf) [2, 10]: 1020 ± 300 ng·h/mL
- half-life [2, 7]: 11.1 ± 5.22 h
- AUC(0-t) [2, 8]: 1020 ± 142 ng·h/mL
- Cmax [2, 8]: 388 ± 32.1 ng/mL
- MRT last [2, 8]: 6.82 ± 0.545 h
- Vd/F [2, 8]: 152 ± 51.5 L/kg
- AUC0–∞ ([2]; rat plasma, n = 6): 1041 ± 300.2 ng·h/mL
- CLz/F ([2]; rat plasma, n = 6): 171 ± 42.3 mL/min/kg
- MRT0–∞ ([2]; rat plasma, n = 6): 12.71 ± 5.092 h
- T1/2z ([2]; rat plasma, n = 6): 11.1 ± 5.22 h

Compound: OCC1OC(Oc2c(O)cc(O)cc2C=Cc2ccc(O)cc2)C(O)C(O)C1O [TSG, trans-2,3,5,4′-tetrahydroxystilbene-2-O-β-D-glucoside]
- Stability in rat plasma (in words) [1]: stable
- Stability Re (%), 4 °C, 48 h [1, 4]: 97.86%
- Stability Re (%), −80 °C, 10 Days [1, 4]: 92.72%
- Stability Re (%), Three Freeze–Thaw Cycles [1, 4]: 99.01%
- Stability Re (%), 4 °C, 48 h [1, 5]: 100.1%
- Stability Re (%), −80 °C, 10 Days [1, 5]: 97.92%
- Stability Re (%), Three Freeze–Thaw Cycles [1, 5]: 91.38%
- Stability Re (%), 4 °C, 48 h [1, 6]: 92.13%
- Stability Re (%), −80 °C, 10 Days [1, 6]: 95.95%
- Stability Re (%), Three Freeze–Thaw Cycles [1, 6]: 95.27%
- half-life [2, 7]: 2.22 ± 1.34 h
- AUC(0-inf) [2, 8]: 758 ± 58.6 ng·h/mL
- AUC(0-t) [2, 8]: 758 ± 58.9 ng·h/mL
- Cmax [2, 8]: 728 ± 104 ng/mL
- MRT last [2, 8]: 1.22 ± 0.182 h
- MRT inf [2, 8]: 1.23 ± 0.203 h
- Tmax [2, 9]: 0.25 h
- Vd/F [2, 8]: 2000 ± 1270 L/kg
- CLz/F ([2]; rat plasma, n = 6): 10300 ± 769 mL/min/kg
- Weighting coefficient (AUC0–∞ share) [3]: 30.19%
